Results reported in patent US8680111B2 (Pfizer Inc., priority 2012, dated 2014).
Where two headings read alike, the source gives them in different places.

Tests used:
[1] = target: T1, L1196M EML4-ALK (NIH-3T3 EML4-ALK v1 L1196M cells) (Homo sapiens, UniProt Q9UM73, L1196M); test: Cellular phospho-ALK (Tyr1604) ELISA assay for L1196M EML4-ALK; format: cell-based
T1 construct: expressed in transfected cells; the other entry of the earlier key: EML4 (Q9HC35, Echinoderm microtubule-associated protein-like 4)

[2] = target: T2, WT EML4-ALK (NIH-3T3 EML4-ALK wt v1 cells) (Homo sapiens, UniProt Q9UM73); test: Cellular phospho-ALK (Tyr1604) ELISA assay for WT EML4-ALK; format: cell-based; conditions: 1 hour
T2 construct: expressed in transfected cells; the other entry of the earlier key: EML4 (Q9HC35, Echinoderm microtubule-associated protein-like 4)
Procedure: Cellular Phospho-ALK (Tyr1604) ELISA Assay for EML4-ALK:
The cells were maintained at 37° C. in a 5% CO2 incubator in DMEM (Invitrogen, Carlsbad, Calif.) medium supplemented with 1% L-glutamine, 1% penicillin and streptomycin, 1 ug/ml puromycin and 10% new born calf serum (NCS) in T-75 flasks.
Cells were washed with PBS and re-suspended in DMEM medium supplemented with 0.5% NCS and 1% pen/strep and seeded into 96-well plates at density of 20,000 cells/well/100 μl and incubated in the incubator at 37° C. and 5% CO2. After 20 hours of incubation, 100 μl of assay media (DMEM) in presence of designated PF-compounds concentrations or controls (DMSO) were added into plates and incubated for 1 hour in the incubator. Media was then removed and lysis buffer, containing phosphatase inhibitors and phenylmethanesulfonyl fluoride (PMSF), was added to wells and shaken at 4° C. for 30 minutes to generate protein lysates.
A phospho-ALK (Tyr1604) rabbit antibody was coated onto the 96-well microplates. 50 μl of cell lysates were added to the antibody coated plate and incubated at room temperature for 2 hours. Following extensive washing with 0.1% Tween 20 in PBS to remove unbound materials, ALK mouse mAb was added to detect captured phospho-ALK (Tyr1604) and phospho-ALK fusion proteins. Anti-mouse IgG, HRP-linked antibody was then used to recognize the bound detection antibody. Finally, the chemiluminescent reagent was added and incubated for 10 minutes for signal development. The assay plates were read in the Envision plate reader in the luminescent mode. IC50 values were calculated by a concentration-response curve fitting using a four-parameter analytic method.

[3] = target: T3, human recombinant wild-type ALK kinase domain (amino acids 1093-1411) (Homo sapiens, UniProt Q9UM73); test: Wild-type ALK enzyme assay (microfluidic mobility shift); format: biochemical; conditions: ATP 60 μM, competitive inhibition fit
T3 construct: ALK kinase domain (amino acids 1093-1411); made in house
Procedure: The reactions were incubated for 1 h at room temperature, stopped by the addition of 0.1 M EDTA, pH 8, and the extent of reactions (˜15-20% conversion with no inhibitor) was determined after electrophoretic separation of the fluorescently labeled peptide substrate and phosphorylated product on an LabChip EZ Reader II (Caliper Life Sciences, Hopkinton, Mass.).

[4] = target: T4, human recombinant L1196M ALK kinase domain (amino acids 1093-1411) (Homo sapiens, UniProt Q9UM73, L1196M); test: L1196M mutant ALK enzyme assay (microfluidic mobility shift); format: biochemical
T4 construct: ALK kinase domain (amino acids 1093-1411); made in house

[5] = NIH-3T3 EML4-ALK v1 L1196M cells, 1 hour, phospho-ALK (Tyr1604), read-out: ELISA assay for L1196M EML4-ALK (IC50)
[6] = read-out: ELISA assay for WT EML4-ALK (IC50)
[7] = read-out: WT ALK enzyme assay (Ki)
[8] = ATP 60 μM, 0.5 nM enzyme, competitive inhibition fit, read-out: L1196M ALK enzyme assay (Ki)

| SMILES | IC50 [1, 5] | IC50 [2, 6] | Ki [3, 7] | Ki [4, 8] | other results |
| --- | --- | --- | --- | --- | --- |
| CC1Oc2cc(cnc2N)-c2c(cnn2C)CCCCCOc2ccc(F)cc21 (stereo not shown) | – | – | – | – | ring closure, isolated yield (cc_pd bond, Pd(OAc)2/cataCXium A/KOAc, t-amyl alcohol, 30.0 mM, 120.0 °C): 43% |
| Cn1ncc2c1-c1cnc(N)c(c1)OCc1cc(F)ccc1OCCC2 | – | – | – | – | ring closure, isolated yield (ether bond, 13-membered ring, NaH, DMF, 51.0 mM, 50.0 °C, 2 steps): 37% |
| C[C@H]1Oc2nc(cnc2N)-c2c(nn(C)c2C#N)CN(C2CC2)C(=O)c2ccc(F)cc21 [Example 54, (10R)-7-amino-16-cyclopropyl-12-fluoro-2,10-dimethyl-15-oxo-10,15,16,17-tetrahydro-2H-8,4-(azeno)pyrazolo[4,3-h][2,5,11]benzoxadiazacyclotetradecine-3-carbonitrile] | 3.03 nM | 0.332 nM | < 0.07 nM | 0.06 nM | ring closure, isolated yield (cc_pd bond, 12-membered ring, Pd(OAc)2/cataCXium A/PivOH/KOAc, t-AmOH/water (1 drop), 37.0 mM, […]): 54% |
| C[C@H]1Oc2nc(cnc2N)-c2cn(C)nc2CN(C)C(=O)c2ccc(F)cc21 [Example 56, (10R)-7-amino-12-fluoro-2,10,16-trimethyl-16,17-dihydro-2H-8,4-(azeno)pyrazolo[4,3-h][2,5,11]benzoxadiazacyclotetradecin-15(10H)-one] | 35 nM | 1.83 nM | 0.2 nM | 0.88 nM | ring closure, isolated yield (cc_pd bond, 12-membered ring, Pd(OAc)2/cataCXium A/KOAc, t-amyl alcohol, 69.8 mM, 120.0 °C): 6% |
| Cc1cnc2nc3c(n2c1)-c1cnc(N)c(c1)O[C@H](C)c1cc(F)ccc1C(=O)N(C)C3 [Example 57, (5R)-8-amino-3-fluoro-5,14,19-trimethyl-18,19-dihydro-7,11-(metheno)-pyrimido[2′,1′:2,3]imidazo[4,5-h][2,5,11]benzoxadiazacyclotetradecin-20(5H)-one] | – | – | – | – | IC50 ([1]; ELISA assay for L1196M EML4-ALK (IC50)): 365 nM; IC50 ([2]; ELISA assay for WT EML4-ALK (IC50)): 6.79 nM; ring closure, isolated yield (amide bond, 12-membered ring, HATU/DIEA, DMF, 25.1 mM): 52%; Ki ([3]; WT ALK enzyme assay (Ki)): 0.14 nM; Ki ([4]; L1196M ALK enzyme assay (Ki)): 2 nM |
| C[C@H]1Oc2cc(nnc2N)-c2c(nn(C)c2C#N)CN(C)C(=O)c2ccc(F)cc21 [Example 60, (10R)-7-amino-12-fluoro-2,10,16-trimethyl-15-oxo-10,15,16,17-tetrahydro-2H-8,4-(metheno)pyrazolo[4,3-h][2,5,6,11]benzoxatriazacyclotetradecine-3-carbonitrile] | – | – | 4.6 nM | 21.5 nM | ring closure, isolated yield (amide bond, 12-membered ring, HATU/DIEA, DMF/THF, 18.6 mM, 0.0 °C): 9% |
| CCc1onc2c1-c1cnc(N)c(c1)O[C@H](C)c1cc(F)ccc1C(=O)N(C)C2 [Example 82, (10R)-7-amino-3-ethyl-12-fluoro-10,16-dimethyl-16,17-dihydro-8,4-(metheno)[1,2]oxazolo[4,3-h][2,5,11]benzoxadiazacyclotetradecin-15(10H)-one] | 183 nM | 11.1 nM | < 0.2 nM | 2.39 nM | ring closure, isolated yield (amide bond, 12-membered ring, 3 steps): 66% |
| C[C@@H]1Oc2nc(cnc2N)-c2cn(C)nc2CN(C)C(=O)c2ccc(F)cc21 [Example 83, (10S)-7-amino-12-fluoro-2,10,16-trimethyl-16,17-dihydro-2H-8,4-(azeno)pyrazolo[4,3-h][2,5,11]benzoxadiazacyclotetradecin-15(10H)-one] | – | – | 47.6 nM | 74 nM | ring closure, isolated yield (cc_pd bond, 12-membered ring, Pd(OAc)2/cataCXium A/KOAc, t-amyl alcohol, 120.0 °C, 2 steps): 11% |
| C[C@H]1Oc2nc(cnc2N)-c2c(C#N)n[nH]c2CN(C)C(=O)c2ccc(F)cc21 [Example 89, (10R)-7-amino-12-fluoro-10,16-di methyl-15-oxo-10,15,16,17-tetrahydro-1H-8,4-(azeno)pyrazolo[4,3-h][2,5,11]benzoxadiazacyclotetradecine-3-carbonitrile] | 56 nM | 6.43 nM | 0.339 nM | 0.275 nM | ring closure, isolated yield (amide bond, 12-membered ring, HATU/DIEA, DMF, 12.6 mM): 15.8% |
| C[C@H]1Oc2nc(cnc2N)-c2c(C#N)nn(CC(F)F)c2CN(C)C(=O)c2ccc(F)cc21 [Example 90, (10R)-7-amino-1-(2,2-difluoroethyl)-12-fluoro-10,16-dimethyl-15-oxo-10,15,16,17-tetrahydro-1H-8,4-(azeno)pyrazolo[4,3-h][2,5,11]benzoxadiazacyclotetradecine-3-carbonitrile] | 13 nM | 1.32 nM | 0.079 nM | 0.249 nM | ring closure, isolated yield (cc_pd bond, 12-membered ring, Pd(OAc)2/cataCXium A/KOAc, t-amyl alcohol, 46.7 mM): 11% |
| C[C@H]1Oc2nc(cnc2N)-c2c(C#N)cccc2CN(C)C(=O)c2ccc(F)cc21 [Example 97, (5R)-8-amino-3-fluoro-5,17-dimethyl-18-oxo-5,16,17,18-tetrahydro-7,11-(azeno)dibenzo[g,l][1,4,10]oxadiazacyclotetradecine-12-carbonitrile] | – | – | 3.5 nM | 24.7 nM | ring closure, isolated yield (amide bond, 12-membered ring, HATU/DIEA, DMF, 6.7 mM): 42% |
| C[C@H]1Oc2nc(cnc2N)-c2c(nn(C)c2C#N)CNC(=O)c2ccc(F)cc21 [Example 102, (10R)-7-amino-12-fluoro-2,10-dimethyl-15-oxo-10,15,16,17-tetrahydro-2H-8,4-(azeno)pyrazolo[4,3-h][2,5,11]benzoxadiazacyclotetradecine-3-carbonitrile] | 83.8 nM | 11.6 nM | 0.33 nM | 1.41 nM | ring closure, isolated yield (amide bond, 12-membered ring, KOH, MeOH, […], 2 steps): 28% |
| C[C@H]1Oc2nc(cnc2N)-c2c(C#N)nn(C)c2CN(C)C(=O)c2ccc(F)cc21 [Example 115, (10R)-7-amino-12-fluoro-1,10,16-trimethyl-15-oxo-10,15,16,17-tetrahydro-1H-8,4-(azeno)pyrazolo[4,3-h][2,5,11]benzoxadiazacyclotetradecine-3-carbonitrile] | 8.18 nM | 0.96 nM | < 0.08 nM | 0.09 nM | – |
| COc1cnc2cc1-c1cnc(N)c(c1)O[C@H](C)c1cc(F)ccc1C(=O)N(C)CC2 [Example 116, (1R)-4-amino-19-fluoro-9-methoxy-1,15-dimethyl-14,15-dihydro-1H-3,7:8,12-di(metheno)-2,5,11,15-benzoxatriazacyclooctadecin-16(13H)-one] | > 10000 nM | > 10000 nM | > 1500 nM | > 3000 nM | – |
| C[C@H]1Oc2cc(cnc2N)-c2c(C#N)noc2CN(C)C(=O)c2ccc(F)cc21 [Example 117, (10R)-7-amino-12-fluoro-10,16-dimethyl-15-oxo-10,15,16,17-tetrahydro-8,4-(metheno)[1,2]oxazolo[4,5-h][2,5,11]benzoxadiazacyclotetradecine-3-carbonitrile] | 393 nM | 35.2 nM | 2.18 nM | 17.8 nM | – |
| Cn1nc2c(c1C#N)-c1cnc(N)c(c1)OCc1cc(F)ccc1COC2 [Example 118, 7-amino-12-fluoro-2-methyl-2,10,15,17-tetrahydro-8,4-(metheno)pyrazolo-[4,3-h][2,11,5]benzodioxazacyclotetradecine-3-carbonitrile] | 1400 nM | 217 nM | 17.8 nM | 64.7 nM | – |
| CC1Oc2cc(cnc2N)-c2c(nn(C)c2C#N)COCc2ccc(F)cc21 (stereo not shown) [Example 119] | 264 nM | 7.79 nM | 1.6 nM | 13.4 nM | – |
| C[C@H]1Oc2cc(cnc2N)-c2c(nn(C)c2C#N)CNC(=O)c2ccc(F)cc21 [Example 132, (10R)-7-amino-12-fluoro-2,10-dimethyl-15-oxo-10,15,16,17-tetrahydro-2H-8,4-(metheno)pyrazolo[4,3-h][2,5,11]benzoxadiazacyclotetradecine-3-carbonitrile] | 892 nM | 35.3 nM | 3.32 nM | 16.5 nM | – |
| CCn1nnc2c1-c1cnc(N)c(c1)O[C@H](C)c1cc(F)ccc1C(=O)N(C)C2 [Example 133, (10R)-7-amino-3-ethyl-12-fluoro-10,16-dimethyl-16,17-dihydro-3H-4,8-(metheno)[1,2,3]triazolo[4,5-h][2,5,11]benzoxadiazacyclotetradecin-15(10H)-one] | 997 nM | 95.8 nM | 3.06 nM | 32.8 nM | – |
| C[C@H]1Oc2cc(cnc2N)-c2c(nnn2CC2CCC2)CN(C)C(=O)c2ccc(F)cc21 [Example 135, (10R)-7-amino-3-(cyclobutylmethyl)-12-fluoro-10,16-dimethyl-16,17-dihydro-3H-8,4-(metheno)[1,2,3]triazolo[4,5-h][2,5,11]benzoxadiazacyclotetradecin-15(10H)-one] | 814 nM | 45.9 nM | 2.1 nM | 12.6 nM | – |
| C[C@H]1Oc2cc(cnc2N)-c2c(nnn2C2CCC2)CN(C)C(=O)c2ccc(F)cc21 [Example 136, (10R)-7-amino-3-cyclobutyl-12-fluoro-10,16-dimethyl-16,17-dihydro-3H-8,4-(metheno)[1,2,3]triazolo[4,5-h][2,5,11]benzoxadiazacyclotetradecin-15(10H)-one] | 419 nM | 28.5 nM | 0.6 nM | 4.8 nM | – |
